According to patent publication US20150005281A1, “PYRIMIDINE-2,4-DIAMINE DERIVATIVES AS KINASE INHIBITORS” (Cellzome Limited, priority 2011, published 2015):

What was measured:
Format in all cases: binding
[1] = biological target: T1, JAK1 (Homo sapiens, UniProt P23458); experiment: Kinobeads assay with immunodetection, JAK1; conditions: for IC50: Kinobeads assay, mixed Molt4/Ramos lysate, read-out: Inhibition values (IC50) JAK1
T1 construct: endogenous in cells; host or cells: Molt4 (ATCC CRL-1582) and Ramos (ATCC CRL-1596) cells; mixed lysate 1:2
Experimental: (§1) Determination of the Effect of the Compounds According to the Invention on Janus Kinases (JAK Family) in Kinobeads™ Assays with Immunodetection of Kinases
(§2) The compounds of the present invention as described in the previous examples were tested in a Kinobeads™ assay as described for ZAP-70 (WO-A 2007/137867). Briefly, test compounds (at various concentrations) and the affinity matrix with the immobilized aminopyrido-pyrimidine ligand 24 were added to cell lysate aliquots and allowed to bind to the proteins in the lysate sample. After the incubation time the beads with captured proteins were separated from the lysate. Bound proteins were then eluted and the presence of JAK1, JAK2, JAK3 and TYK2 was detected and quantified using specific antibodies in a dot blot procedure and the Odyssey infrared detection system. Dose response curves for individual kinases were generated and IC50 values calculated. Kinobeads™ assays for ZAP-70 (WO-A 2007/137867) and for kinase selectivity profiling (WO-A 2006/134056) have been previously described.
(§3) The affinity matrix was washed two times with 15 mL of 1×DP buffer containing 0.2% NP40 (IGEPAL® CA-630, Sigma, #13021) and then resuspended in 1×DP buffer containing 0.2% NP40 (3% beads slurry).
(§4) 5×DP buffer: 250 mM Tris-HCl pH 7.4, 25% Glycerol, 7.5 mM MgCl2, 750 mM NaCl, 5 mM Na3VO4; filter the 5×DP buffer through a 0.22 μm filter and store in aliquots at −80° C. The 5×DP buffer is diluted with H2O to 1×DP buffer containing 1 mM DTT and 25 mM NaF.
(§5) Stock solutions of test compounds were prepared in DMSO. In a 96 well plate 30 μL solution of diluted test compounds at 5 mM in DMSO were prepared. Starting with this solution a 1:3 dilution series (9 steps) was prepared. For control experiments (no test compound) a buffer containing 2% DMSO was used.
(§6) Molt4 cells (ATCC catalogue number CRL-1582) and Ramos cells (ATCC catalogue number CRL-1596) were grown in 1 L Spinner flasks (Integra Biosciences, #182101) in suspension in RPMI 1640 medium (Invitrogen, #21875-034) supplemented with 10% Fetal Bovine Serum (Invitrogen) at a density between 0.15×10^6 and 1.2×10^6 cells/mL. Cells were harvested by centrifugation, washed once with 1×PBS buffer (Invitrogen, #14190-094) and cell pellets were frozen in liquid nitrogen and subsequently stored at −80° C. Cells were homogenized in a Potter S homogenizer in lysis buffer: 50 mM Tris-HCl, 0.8% NP40, 5% glycerol, 150 mM NaCl, 1.5 mM MgCl2, 25 mM NaF, 1 mM sodium vanadate, 1 mM DTT, pH 7.5. One complete EDTA-free tablet (protease inhibitor cocktail, Roche Diagnostics, 1873580) per 25 ml, buffer was added. The material was dounced 10 times using a mechanized POTTER S, transferred to 50 mL falcon tubes, incubated for 30 minutes on ice and spun down for 10 minutes at 20,000 g at 4° C. (10,000 rpm in Sorvall SLA600, precooled). The supernatant was transferred to an ultracentrifuge (UZ)-polycarbonate tube (Beckmann, 355654) and spun for 1 hour at 100.000 g at 4° C. (33.500 rpm in Ti50.2, precooled). The supernatant was transferred again to a fresh 50 mL falcon tube, the protein concentration was determined by a Bradford assay (BioRad) and samples containing 50 mg of protein per aliquot were prepared. The samples were immediately used for experiments or frozen in liquid nitrogen and stored frozen at −80° C.
(§7) Cell lysate (approximately 50 mg protein per plate) was thawed in a water bath at room temperature and then stored on ice. To the thawed cell lysate 1×DP 0.8% NP40 buffer containing protease inhibitors (1 tablet for 25 mL buffer; EDTA-free protease inhibitor cocktail; Roche Diagnostics 1873580) was added in order to reach a final protein concentration of 10 mg/mL total protein. The diluted cell lysate was stored on ice. Mixed Molt4/Ramos lysate was prepared by combining one volume of Molt4 lysate and two volumes of Ramos lysate (ratio 1:2). […]

[2] = biological target: T2, TYK2 (Homo sapiens, UniProt P29597); experiment: Kinobeads assay with immunodetection, TYK2; conditions: for IC50: Kinobeads assay, mixed Molt4/Ramos lysate, read-out: Inhibition values (IC50) Tyk2
T2 construct: endogenous in cells; host or cells: Molt4 (ATCC CRL-1582) and Ramos (ATCC CRL-1596) cells; mixed lysate 1:2
Experimental: as §1, §2, §3, §4, §5, §6, §7

[3] = biological target: T3, JAK3 (Homo sapiens, UniProt P52333); experiment: Kinobeads assay with immunodetection, JAK3; conditions: for IC50: Kinobeads assay, mixed Molt4/Ramos lysate, read-out: Inhibition values (IC50) JAK3
T3 construct: endogenous in cells; host or cells: Molt4 (ATCC CRL-1582) and Ramos (ATCC CRL-1596) cells; mixed lysate 1:2
T3 sequence (P52333 1-1124): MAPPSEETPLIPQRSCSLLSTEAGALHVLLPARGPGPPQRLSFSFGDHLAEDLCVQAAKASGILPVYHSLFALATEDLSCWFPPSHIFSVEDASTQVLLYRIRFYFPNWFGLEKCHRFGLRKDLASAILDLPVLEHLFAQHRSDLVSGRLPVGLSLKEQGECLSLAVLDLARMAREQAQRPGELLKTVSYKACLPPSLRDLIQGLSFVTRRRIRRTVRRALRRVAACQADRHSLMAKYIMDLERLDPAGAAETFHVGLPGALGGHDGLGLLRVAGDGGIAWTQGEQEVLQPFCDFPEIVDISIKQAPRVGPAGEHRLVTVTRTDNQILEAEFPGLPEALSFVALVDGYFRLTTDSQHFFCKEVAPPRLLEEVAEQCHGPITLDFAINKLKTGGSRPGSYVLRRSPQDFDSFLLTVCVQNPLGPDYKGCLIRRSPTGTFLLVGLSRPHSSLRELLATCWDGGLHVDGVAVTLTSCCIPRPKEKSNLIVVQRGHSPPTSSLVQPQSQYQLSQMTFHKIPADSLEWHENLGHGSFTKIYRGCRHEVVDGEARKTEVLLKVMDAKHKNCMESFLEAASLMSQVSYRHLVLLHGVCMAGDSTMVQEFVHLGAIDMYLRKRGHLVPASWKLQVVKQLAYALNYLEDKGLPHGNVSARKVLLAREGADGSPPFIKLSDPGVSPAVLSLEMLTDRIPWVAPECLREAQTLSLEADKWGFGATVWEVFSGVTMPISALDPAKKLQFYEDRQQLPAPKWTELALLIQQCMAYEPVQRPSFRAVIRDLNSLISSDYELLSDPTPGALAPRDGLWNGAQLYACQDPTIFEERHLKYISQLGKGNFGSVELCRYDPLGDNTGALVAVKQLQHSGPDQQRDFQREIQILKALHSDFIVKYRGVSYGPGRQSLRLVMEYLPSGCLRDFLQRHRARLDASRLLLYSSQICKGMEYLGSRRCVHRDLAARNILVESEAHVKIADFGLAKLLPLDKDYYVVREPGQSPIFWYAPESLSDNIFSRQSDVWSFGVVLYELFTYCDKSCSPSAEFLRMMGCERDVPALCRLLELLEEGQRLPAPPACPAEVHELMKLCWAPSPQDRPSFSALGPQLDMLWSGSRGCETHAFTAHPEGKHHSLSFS
Experimental: as §1, §2, §3, §4, §5, §6, §7

[4] = biological target: T4, JAK2 (Homo sapiens, UniProt O60674); experiment: Kinobeads assay with immunodetection, JAK2; conditions: mixed Molt4/Ramos lysate, read-out: Inhibition values (IC50) JAK2
T4 construct: endogenous in cells; host or cells: Molt4 (ATCC CRL-1582) and Ramos (ATCC CRL-1596) cells; mixed lysate 1:2
Experimental: as §1, §2, §3, §4, §5, §6, §7

T4 sequence (O60674 whole entry): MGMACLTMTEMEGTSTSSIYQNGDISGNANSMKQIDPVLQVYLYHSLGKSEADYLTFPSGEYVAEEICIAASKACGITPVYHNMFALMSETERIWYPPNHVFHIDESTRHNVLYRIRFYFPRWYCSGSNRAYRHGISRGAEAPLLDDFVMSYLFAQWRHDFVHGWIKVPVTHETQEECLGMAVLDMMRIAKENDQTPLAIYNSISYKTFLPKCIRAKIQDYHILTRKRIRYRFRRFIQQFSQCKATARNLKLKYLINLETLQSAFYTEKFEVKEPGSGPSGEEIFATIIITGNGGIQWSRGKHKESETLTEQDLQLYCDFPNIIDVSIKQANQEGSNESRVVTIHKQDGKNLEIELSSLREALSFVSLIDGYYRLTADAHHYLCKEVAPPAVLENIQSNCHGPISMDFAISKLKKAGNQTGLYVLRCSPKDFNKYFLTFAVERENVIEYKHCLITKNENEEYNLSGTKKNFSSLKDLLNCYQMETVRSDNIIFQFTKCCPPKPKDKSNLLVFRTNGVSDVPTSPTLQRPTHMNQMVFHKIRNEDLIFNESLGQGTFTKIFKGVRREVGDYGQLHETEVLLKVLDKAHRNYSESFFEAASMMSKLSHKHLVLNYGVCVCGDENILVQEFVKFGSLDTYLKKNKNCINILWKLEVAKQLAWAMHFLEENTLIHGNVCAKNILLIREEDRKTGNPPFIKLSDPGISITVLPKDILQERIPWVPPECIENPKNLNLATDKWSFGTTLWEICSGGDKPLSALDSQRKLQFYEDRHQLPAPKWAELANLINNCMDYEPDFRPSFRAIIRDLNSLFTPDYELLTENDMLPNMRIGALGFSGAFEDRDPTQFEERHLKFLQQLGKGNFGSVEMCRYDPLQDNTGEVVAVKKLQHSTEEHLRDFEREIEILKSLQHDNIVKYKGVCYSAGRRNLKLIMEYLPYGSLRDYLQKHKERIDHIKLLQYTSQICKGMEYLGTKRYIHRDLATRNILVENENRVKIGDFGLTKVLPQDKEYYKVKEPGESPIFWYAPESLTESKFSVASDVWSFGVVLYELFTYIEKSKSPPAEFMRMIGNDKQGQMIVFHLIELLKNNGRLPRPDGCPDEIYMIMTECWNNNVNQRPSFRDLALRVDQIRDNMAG
T1 sequence (P23458 whole entry): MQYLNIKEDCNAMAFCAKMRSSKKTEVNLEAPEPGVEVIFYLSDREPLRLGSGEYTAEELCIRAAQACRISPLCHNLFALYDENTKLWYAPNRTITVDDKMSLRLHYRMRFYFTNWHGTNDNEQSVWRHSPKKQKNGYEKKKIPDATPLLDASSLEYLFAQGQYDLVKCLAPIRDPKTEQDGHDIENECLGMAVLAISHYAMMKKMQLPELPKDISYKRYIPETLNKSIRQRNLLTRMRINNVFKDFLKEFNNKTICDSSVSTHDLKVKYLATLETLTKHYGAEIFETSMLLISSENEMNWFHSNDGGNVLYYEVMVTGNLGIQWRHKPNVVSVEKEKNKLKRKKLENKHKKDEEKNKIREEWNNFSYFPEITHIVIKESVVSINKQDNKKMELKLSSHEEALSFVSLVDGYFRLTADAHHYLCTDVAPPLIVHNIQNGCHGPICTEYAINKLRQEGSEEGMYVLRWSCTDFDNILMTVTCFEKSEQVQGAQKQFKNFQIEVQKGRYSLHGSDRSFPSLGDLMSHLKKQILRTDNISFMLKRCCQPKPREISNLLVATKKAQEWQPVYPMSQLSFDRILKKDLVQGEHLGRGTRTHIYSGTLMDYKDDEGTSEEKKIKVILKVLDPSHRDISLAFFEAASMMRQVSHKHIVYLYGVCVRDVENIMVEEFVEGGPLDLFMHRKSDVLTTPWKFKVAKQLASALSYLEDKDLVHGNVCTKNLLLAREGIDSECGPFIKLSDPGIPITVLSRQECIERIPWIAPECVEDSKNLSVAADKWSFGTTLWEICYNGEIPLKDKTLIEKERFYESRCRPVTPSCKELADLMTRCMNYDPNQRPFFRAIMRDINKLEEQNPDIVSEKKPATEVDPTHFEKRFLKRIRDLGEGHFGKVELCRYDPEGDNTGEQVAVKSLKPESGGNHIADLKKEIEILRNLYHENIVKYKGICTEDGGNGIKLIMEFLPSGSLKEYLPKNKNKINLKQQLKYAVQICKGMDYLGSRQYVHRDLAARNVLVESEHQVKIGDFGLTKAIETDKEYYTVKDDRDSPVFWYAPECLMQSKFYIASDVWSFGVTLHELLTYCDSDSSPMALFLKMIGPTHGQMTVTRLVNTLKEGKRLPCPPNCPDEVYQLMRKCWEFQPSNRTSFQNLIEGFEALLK
T2 sequence (P29597 whole entry): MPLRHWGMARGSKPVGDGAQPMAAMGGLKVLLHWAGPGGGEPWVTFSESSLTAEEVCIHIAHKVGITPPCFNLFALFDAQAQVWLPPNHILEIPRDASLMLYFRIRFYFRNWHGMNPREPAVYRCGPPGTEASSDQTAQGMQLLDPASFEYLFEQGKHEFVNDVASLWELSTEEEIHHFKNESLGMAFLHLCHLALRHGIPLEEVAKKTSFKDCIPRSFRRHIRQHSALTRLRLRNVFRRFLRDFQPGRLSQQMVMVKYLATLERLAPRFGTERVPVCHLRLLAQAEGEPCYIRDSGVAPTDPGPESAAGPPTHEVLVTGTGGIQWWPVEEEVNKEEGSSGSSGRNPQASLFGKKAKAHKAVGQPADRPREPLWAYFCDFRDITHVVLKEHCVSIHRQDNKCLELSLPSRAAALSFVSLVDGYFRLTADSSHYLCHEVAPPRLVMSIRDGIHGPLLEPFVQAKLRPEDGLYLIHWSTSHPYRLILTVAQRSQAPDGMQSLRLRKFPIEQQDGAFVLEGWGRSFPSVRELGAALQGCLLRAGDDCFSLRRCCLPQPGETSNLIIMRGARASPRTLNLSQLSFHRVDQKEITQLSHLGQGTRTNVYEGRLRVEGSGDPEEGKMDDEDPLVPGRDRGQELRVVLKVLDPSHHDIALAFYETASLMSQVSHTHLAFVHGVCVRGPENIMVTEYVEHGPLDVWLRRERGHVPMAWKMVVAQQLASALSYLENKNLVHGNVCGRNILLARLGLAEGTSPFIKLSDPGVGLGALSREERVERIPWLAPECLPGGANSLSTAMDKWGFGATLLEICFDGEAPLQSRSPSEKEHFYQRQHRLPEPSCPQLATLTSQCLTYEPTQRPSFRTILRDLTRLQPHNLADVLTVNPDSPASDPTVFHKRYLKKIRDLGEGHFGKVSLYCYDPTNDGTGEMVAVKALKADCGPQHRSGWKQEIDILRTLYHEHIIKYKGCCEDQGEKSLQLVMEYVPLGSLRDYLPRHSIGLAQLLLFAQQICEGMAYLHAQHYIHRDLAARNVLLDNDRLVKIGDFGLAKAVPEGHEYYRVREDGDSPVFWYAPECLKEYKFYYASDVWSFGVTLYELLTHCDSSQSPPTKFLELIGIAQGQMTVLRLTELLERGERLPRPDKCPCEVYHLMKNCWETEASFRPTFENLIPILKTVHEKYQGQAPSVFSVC

Structure (SMILES)	IC50 [1] [nM]	IC50 [2] [nM]	Selectivity ratio over JAK2, Tyk2 [2]	IC50 [3] [nM]	IC50 [4] [nM]	Selectivity ratio over JAK2, JAK3 [3]	Selectivity ratio over JAK2, JAK1 [1]
CC(C)NC(=O)Cn1cc(Nc2nccc(NC[C@H]3CCCN3CCC#N)n2)cn1 [Example 83, (R)-2-(4-((4-(((1-(2-cyanoethyl)pyrrolidin-2-yl)methyl)amino)pyrimidin-2-yl)amino)-1H-pyrazol-1-yl)-N-isopropylacetamide]	1000 to 10000	< 100	Tyk2 = 650	1000 to 10000	> 10000		
C=CS(=O)(=O)N1CCCC[C@@H]1CNc1nc(Nc2cnn(C)c2)ncc1Cl [Example 45, (R)-5-chloro-N^2-(1-methyl-1H-pyrazol-4-yl)-N^4-((1-(vinylsulfonyl)piperidin-2-yl)methyl)pyrimidine-2,4-diamine]	100 to 1000	100 to 1000		< 100	1000 to 10000	JAK3 = 160	
C=CC(=O)N1CC[C@H](CNc2nc(Nc3cnn(C)c3)ncc2Cl)C1 [Example 22, (R)-1-(3-(((5-chloro-2-((1-methyl-1H-pyrazol-4-yl)amino)pyrimidin-4-yl)amino)methyl)pyrrolidin-1-yl)prop-2-en-1-one]	100 to 1000	100 to 1000		< 100	1000 to 10000	JAK3 = 610	
Cn1cc(Nc2ncc(Cl)c(NC[C@@H]3CCN(S(C)(=O)=O)C3)n2)cn1 [Example 30, (S)-5-chloro-N^2-(1-methyl-1H-pyrazol-4-yl)-N^4-((1-(methylsulfonyl)pyrrolidin-3-yl)methyl)pyrimidine-2,4-diamine]	1000 to 10000	100 to 1000	Tyk2 = 9	100 to 1000	1000 to 10000		
Cn1cc(Nc2ncc(F)c(NC[C@H]3CCCN3C(=O)CC#N)n2)cn1 [Example 113, (R)-3-(2-(((5-fluoro-2-((1-methyl-1H-pyrazol-4-yl)amino)pyrimidin-4-yl)amino)methyl)pyrrolidin-1-yl)-3-oxopropanenitrile]	< 100	< 100	Tyk2 = 170	100 to 1000	1000 to 10000		
OCCn1cc(Nc2ncc(Cl)c(NCC3CCNC3)n2)cn1 (stereo in doubt) [Example 79, (R)-2-(4-((5-chloro-4-((pyrrolidin-3-ylmethyl)amino)pyrimidin-2-yl)amino)-1H-pyrazol-1-yl)ethanol]	100 to 1000	100 to 1000		1000 to 10000	< 100		JAK1 = 39
CC(=O)N1CC(CNc2nc(Nc3cnn(C)c3)ncc2Cl)C1 [Example 16, 1-(3-(((5-chloro-2-((1-methyl-1H-pyrazol-4-yl)amino)pyrimidin-4-yl)amino)methyl)azetidin-1-yl)ethanone]	> 10000	> 10000		> 10000	> 10000		
Cn1cc(Nc2ncc(Cl)c(NCC3CCCN(C(=O)CC#N)C3)n2)cn1 (stereo not shown) [Example 134, 3-(3-(((5-chloro-2-((1-methyl-1H-pyrazol-4-yl)amino)pyrimidin-4-yl)amino)methyl)piperidin-1-yl)-3-oxopropanenitrile]	< 100	< 100		< 100	100 to 1000	JAK3 = 32	
Cn1cc(Nc2ncc(Cl)c(NCC3CCCCC3)n2)cn1 [Example 47, 5-chloro-N^4-(cyclohexylmethyl)-N^2-(1-methyl-1H-pyrazol-4-yl)pyrimidine-2,4-diamine]	100 to 1000	100 to 1000		100 to 1000	1000 to 10000	JAK3 = 5	
Cn1cc(Nc2ncc(Cl)c(NCC3COCCN3CCS(C)(=O)=O)n2)cn1 (stereo not shown) [Example 87, 5-chloro-N^2-(1-methyl-1H-pyrazol-4-yl)-N^4-((4-(2-(methylsulfonyl)ethyl)morpholin-3-yl)methyl)pyrimidine-2,4-diamine]	100 to 1000	100 to 1000		< 100	1000 to 10000	JAK3 = 33	
Cn1cc(Nc2nccc(NC[C@H]3CCCN3C(=O)CC#N)n2)cn1 [Example 95, (R)-3-(2-(((2-((1-methyl-1H-pyrazol-4-yl)amino)pyrimidin-4-yl)amino)methyl)pyrrolidin-1-yl)-3-oxopropanenitrile]	100 to 1000	< 100	Tyk2 = 138	1000 to 10000	1000 to 10000		
CS(=O)(=O)N1CCC[C@H]1CNc1nc(Nc2cnn(CCO)c2)ncc1Cl [Example 13, (S)-2-(4-((5-chloro-4-(((1-(methylsulfonyl)pyrrolidin-2-yl)methyl)amino)pyrimidin-2-yl)amino)-1H-pyrazol-1-yl)ethanol]	< 100	< 100		< 100	100 to 1000		JAK1 = 13
Cc1cnc(Nc2cnn(CC(F)F)c2)nc1NC[C@@H]1C[C@H](F)CN1C(=O)CCC#N [Example 122, 4-((2S,4S)-2-(((2-((1-(2,2-difluoroethyl)-1H-pyrazol-4-yl)amino)-5-methylpyrimidin-4-yl)amino)methyl)-4-fluoropyrrolidin-1-yl)-4-oxobutanenitrile]	< 100	100 to 1000		1000 to 10000	1000 to 10000		JAK1 = 194
